Calls of active or inactive are those of the source.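 The calls were made as follows: active = compounds whose IC50 against the worm SKN-1 reporter ratio signal is 5 µM or lower; inactive = the rest.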
Test system: C. elegans VP596 gst-4::GFP/RFP ratio, acrylamide, 24 h
Experiment: gst-4 reporter suppression by analogs in C. elegans – whole organism, GFP/RFP fluorescence ratio, strain VP596, SKN-1 inhibitor project, SAR follow-up (AID 652140)

Structure (SMILES)	IC50
CCOc1cc(CNC2CCCC2)ccc1OCc1ccc(F)cc1	10.3 µM (inactive)
CCOc1cc(CNC2CCCC2)cc(Cl)c1OCc1ccccc1Cl	12 µM (inactive)
c1ccc(-c2csc(-c3ccncc3)n2)cc1	2.58 µM
COc1ccc(-c2csc(-c3ccncc3)n2)cc1	18 µM (inactive)
Cc1ccc(-c2csc(-c3cccnc3)n2)cc1	30 µM (inactive)
CCOc1cc(CNCc2ccccc2)cc(Cl)c1OCc1ccc(F)cc1	17.4 µM (inactive)
Clc1ccc(-c2csc(-c3ccncc3)n2)cc1	1.1 µM
Fc1ccc(-c2csc(-c3cccnc3)n2)cc1	6.09 µM (inactive)
CCOc1cc(CNC2CCCC2)cc(Cl)c1OC	> 64 µM (inactive)
c1ccc(-c2csc(-c3cccnc3)n2)cc1	19.6 µM (inactive)
Clc1ccc(-c2csc(-c3cccnc3)n2)cc1	1.51 µM
Fc1ccc(-c2csc(-c3ccncc3)n2)cc1	2.03 µM
CCOc1cc(CNc2ccccc2)cc(Cl)c1OCc1ccc(F)cc1	> 64 µM (inactive)
CCOc1cc(CNC2CCCC2)cc(Cl)c1OCc1ccccc1F	0.767 µM
Cc1ccc(-c2csc(-c3ccncc3)n2)cc1	17.7 µM (inactive)
CCOc1cc(CNC(C)C)cc(Cl)c1OCc1ccc(F)cc1	16.7 µM (inactive)
COc1ccc(-c2csc(-c3cccnc3)n2)cc1	> 64 µM (inactive)

Continued, values first:

IC50	Structure (SMILES)
8.68 µM (inactive)	CCOc1cc(CNC2CCC2)cc(Cl)c1OCc1ccc(F)cc1
> 64 µM (inactive)	CCOc1cc(C(=O)NC2CCCC2)cc(Cl)c1OCc1ccc(F)cc1
0.244 µM	CCOc1cc(CNC2CCCC2)cc(Cl)c1OCc1ccc(Cl)cc1
0.826 µM	COc1cc(CNC2CCCC2)cc(Cl)c1OCc1ccc(F)cc1
4.18 µM	Fc1ccc(COc2ccc(CNC3CCCC3)cc2Cl)cc1
1.96 µM	CCOc1cc(CNC2CC2)cc(Cl)c1OCc1ccc(F)cc1
1.04 µM	CCOc1cc(CNC2CCCC2)cc(Cl)c1OCc1ccc(F)cc1
7.17 µM (inactive)	CCOc1cc(CNC2CCCC2)cc(Cl)c1OCc1cccc(F)c1
> 64 µM (inactive)	CCOc1cc(CNC2CCCC2)cc(Cl)c1OCc1ccc(OC)cc1
25.8 µM (inactive)	CCOc1cc(CNC2CCCC2)cc(Cl)c1OCc1ccc(C)cc1
9.66 µM (inactive)	CCOc1cc(CNC2CCCCC2)cc(Cl)c1OCc1ccc(F)cc1

Source: PubChem BioAssay AID652140 (Sanford-Burnham Center for Chemical Genomics, 2013)
